{"source": "patent US7420100B2", "about": "“Methods and compositions relating to HDAC 4 and 5 regulation of cardiac gene expression” (Board of Regents, The University of Texas System, priority 1999, dated 2008)", "key": {"[1]": {"tested_on": "HDAC 5-green fluorescent protein (GFP) chimeric molecule", "experiment": "subcellular distribution of HDAC 5-GFP in CaMKI-expressing cells exposed to leptomycinB", "assay_type": "cell-based", "conditions": "CaMKI-expressing cells treated with leptomycinB", "excerpt": "In principle, nuclear exclusion of HDAC 5 could result from inhibition of nuclear import or stimulation of nuclear export. To distinguish between these possibilities, the subcellular distribution of an HDAC 5-green fluorescent protein (GFP) chimeric molecule was monitored in cells exposed to leptomycinB, a fungal toxin that blocks nuclear export. In CaMK1 expressing cells, HDAC 5 is localized to the cytoplasm."}, "[2]": {"tested_on": "hypertrophic response to endothelin-1", "conditions": "in vitro; cited from earlier work"}, "[3]": {"tested_on": "GAL4-MEF2C fusion protein", "experiment": "activation of GAL4-MEF2C fusion protein in cardiomyocytes", "assay_type": "cell-based, rat", "conditions": "stimulation of cardiomyocytes", "method": "Preparation of primary rat cardiomyocytes. Cardiomyocyte cultures are prepared by dissociation of 1-day old neonatal rat hearts and were differentially plated to remove fibroblasts. To induce the hypertrophic response, AngII and PE are added to cardiomyocyte cultures at 10 nM and 10 μM, respectively, in serum-free M199 media. The culture media containing either agonist is changed every 12 hours for a period of 72 hours.\nIn light of the ability of MEF2 to respond to calcium-dependent signal transduction pathways in T cells, the inventors have investigated whether the same pathways also activate MEF2 in cardiomyocytes. […] When the C-terminus of MEF2C, which contains the transcription activation domains (TADs), but lacks the MADS and MEF2 domains required for DNA binding and dimerization, is fused to the DNA binding domain of the yeast transcription factor GAL4, the resulting GAL4-MEF2C fusion protein retains sensitivity to calcineurin and CaMKIV. This GAL4-MEF2C fusion protein is also activated by stimulation of cardiomyocytes with the hypertrophic agonist phenylephrine (PE)."}, "cultured cardiomyocytes": {"tested_on": "cultured cardiomyocytes", "conditions": "α-adrenergic stimulation and Ca2+ channel agonists; cited from earlier work"}, "BZLF1": {"tested_on": "BZLF1", "conditions": "cited from earlier work"}}, "data": [{"molecule": "CCC(=C/[C@H](C)C/C=C/C(C)=C/[C@@H](C)C(=O)[C@@H](C)[C@H](O)[C@@H](C)C/C(C)=C/C(=O)O)/C=C/[C@@H]1OC(=O)C=C[C@@H]1C", "note": "[leptomycinB]", "values": [{"measurement": "subcellular localization of HDAC 5", "setting": "[1]", "value": "translocation of HDAC 5 from the cytoplasm to the nucleus"}, {"measurement": "time course of HDAC 5 translocation from cytoplasm to nucleus", "setting": "[1]", "value": 4, "unit": "h"}]}, {"molecule": "COc1ccc(S(=O)(=O)N(CCO)c2ccccc2CN(C)C/C=C/c2ccc(Cl)cc2)cc1", "note": "[KN-93]", "values": [{"measurement": "effect on hypertrophic response to endothelin-1", "setting": "[2]", "value": "can block the hypertrophic response"}]}, {"molecule": "CNC[C@H](O)c1cccc(O)c1", "note": "[phenylephrine]", "values": [{"measurement": "activation of GAL4-MEF2C fusion protein", "setting": "[3]", "value": "activated"}]}, {"molecule": "NCCCCCCNS(=O)(=O)c1cccc2c(Cl)cccc12", "note": "[W-7]", "values": [{"measurement": "effect on hypertrophy", "setting": "cultured cardiomyocytes", "value": "prevents hypertrophy"}]}, {"molecule": "cyclosporin A [CsA]", "values": [{"measurement": "effect on BZLF1 transcription", "setting": "BZLF1", "value": "inhibited"}]}]}
